The values below come from patent publication US9187424B1, “Aryl dihydropyridinones and piperidinone MGAT2 inhibitors” (Bristol-Myers Squibb Company, priority 2011, dated 2015).

Assay [1] has as its target T1, Human MGAT-2 (Homo sapiens (Human), UniProt Q3SYC2). The assay is described as follows: MGAT LCMS Assay (human MGAT-2).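 Further: diolein product quantified by LC/MS with positive APCI, expressed as peak area ratio versus an internal standard, and this ratio used to derive IC50.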 The following applies: human MGAT-2 membranes expressed in Sf9 cells; 2-oleoylglycerol and oleoyl-Coenzyme A; read-out: h-MGAT2 IC50 (nM) LCMS Assay. It counts as biochemical.
The target of assay [2] is T1, Human MGAT-2. The assay is described as follows: MGAT SPA Assay.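 Further: inhibition scaled between DMSO vehicle as full MGAT2 activity and membranes of uninfected Sf9 cells as blank, IC50 fitted by logistic curve.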 It is filed as biochemical. Particulars: membranes from Sf9 cells expressing recombinant human MGAT2; 2-monooleoylglycerol and [3H]-oleoyl-CoA.

Each structure is given as a SMILES string.

T1 sequence (Q3SYC2 whole entry): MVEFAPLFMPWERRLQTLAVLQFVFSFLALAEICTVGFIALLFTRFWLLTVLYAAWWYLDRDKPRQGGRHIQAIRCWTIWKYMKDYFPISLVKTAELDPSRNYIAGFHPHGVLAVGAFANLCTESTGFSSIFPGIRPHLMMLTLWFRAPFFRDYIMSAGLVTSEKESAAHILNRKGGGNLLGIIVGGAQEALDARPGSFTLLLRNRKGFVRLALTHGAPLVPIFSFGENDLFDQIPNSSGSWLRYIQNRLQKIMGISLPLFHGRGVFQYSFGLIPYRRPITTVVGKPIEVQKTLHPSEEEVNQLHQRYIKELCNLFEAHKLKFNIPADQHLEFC

Broadly, the IC50 is the midpoint of a concentration-inhibition curve. Turning to `CCCCOc1ccc(C2(C(F)(F)F)CC(c3ccc(OC)cc3)=C(NC(=O)c3ccno3)C(=O)N2)cc1` (stereo not drawn) [Example 172], the IC50 was found to be 3 nM on Human MGAT-2 [1] and 16 nM at Human MGAT-2 [2].
In the case of `Cc1ccc(C2=C(c3ccc(OC(F)(F)F)cc3)C(=O)NC(c3ccc(OCCCC(F)(F)F)cc3)(C(F)(F)F)C2)cc1` (stereo not drawn) [Example 94], the concentration for half-maximal inhibition (IC50) at Human MGAT-2 [1] came to 4 nM; on Human MGAT-2 [2] it was 32 nM.
`Cc1ccc(NC(=O)C2=C(c3ccc(C)cc3)CC(c3ccc(OCCCC(F)(F)F)cc3)(C(F)(F)F)NC2=O)cc1` (stereo not drawn) [Example 82]: the results for the IC50 on Human MGAT-2 [1] and at Human MGAT-2 [2] were 2 nM and 133 nM, respectively.
Regarding `Cc1ccc(C2=C(C(=O)Nc3ccc(O)cc3)C(=O)NC(c3ccc(OCCCC(F)(F)F)cc3)(C(F)(F)F)C2)cc1` (stereo not drawn) [Example 122], the results for the half-inhibitory concentration (IC50) at Human MGAT-2 [1] and on Human MGAT-2 [2] were 1 nM and 14 nM, respectively.
Turning to `O=C1NC(c2ccc(OCCCC(F)(F)F)cc2)(C(F)(F)F)CC(c2ccc(OC(F)F)cc2)=C1c1nn[nH]n1` (stereo not drawn) [Example 93], the 50% inhibitory concentration (IC50) at Human MGAT-2 [1] worked out at 30 nM; on Human MGAT-2 [2], 37 nM.
As for `COc1ccc(NC(=O)C2=C(c3ccc(C)cc3)CC(C)(C(=O)NCCCCc3ccccc3)NC2=O)cc1` (stereo not drawn) [Example 178], the IC50 at Human MGAT-2 [1] turned out to be 78 nM; at Human MGAT-2 [2] it was 47 nM.
For `CC(C)(C)c1ccc(C2=C(C#N)C(=O)NC(C)(c3ccc(C(C)(C)C)cc3)C2)cc1` (stereo not drawn) [Example 20], at Human MGAT-2 [2], the concentration for half-maximal inhibition (IC50) came out at 3460 nM.
With `Cc1ccc(C2=C(C#N)C(=O)NC(c3ccc(Oc4ncccn4)cc3)(C(F)(F)F)C2)cc1` (stereo not drawn) [Example 46], the IC50 at Human MGAT-2 [2] was determined as 871 nM.
On to `COc1ccc(NC(=O)C2=C(c3ccc(C)cc3)CC(c3ccc(OCC(F)(F)F)cc3)(C(F)(F)F)NC2=O)cc1` (stereo not drawn) [Example 88], for which the IC50 at Human MGAT-2 [1] stood at 5 nM; at Human MGAT-2 [2] it was 28 nM.
Regarding `COc1ccc(C2=C(C#N)C(=O)NC(c3ccc(OCCCC(F)(F)F)cc3)(C(F)(F)F)C2)c(F)c1` (stereo not drawn) [Example 91], the IC50 at Human MGAT-2 [1] was 2 nM; on Human MGAT-2 [2] it was 916 nM.
In the case of `N#CC1=C(c2cccc(C#N)c2)CC(c2ccc(OCCCC(F)(F)F)cc2)(C(F)(F)F)NC1=O` (stereo not drawn) [Example 69], the IC50 at Human MGAT-2 [1] came out at 983 nM; on Human MGAT-2 [2], 9230 nM.
As for `COc1ccc(NC(=O)C2=C(c3ccc(C)cc3)C(F)(F)C(c3ccc(OCCC(F)(F)F)cc3)(C(F)(F)F)NC2=O)cc1` (stereo not drawn) [Example 133], the IC50 amounted to 127 nM on Human MGAT-2 [1] and 1520 nM at Human MGAT-2 [2].
For the molecule `Cc1ccc(C2=C(C#N)C(=O)NC(c3ccc(Cl)cc3)(C(F)(F)F)C2)cc1` (stereo not drawn) [Example 24], the concentration for half-maximal inhibition (IC50) at Human MGAT-2 [2] came out at 1730 nM.
As for `Cc1ccc(C2=C(C#N)C(=O)NC(c3ccc(Oc4ccccc4)nc3)(C(F)(F)F)C2)cc1` (stereo not drawn) [Example 44], the 50% inhibitory concentration (IC50) at Human MGAT-2 [2] was 1460 nM.
In the case of `CCCCCc1ccc(C2(C(F)(F)F)CC(c3ccc(C)cc3)=C(C(=O)Nc3ccc(F)cc3)C(=O)N2)cc1` (stereo not drawn) [Example 51], the figures for the half-maximal inhibitory concentration (IC50) at Human MGAT-2 [1] and at Human MGAT-2 [2] were 13 nM and 63 nM, respectively.
As for `COc1cccc(C2=C(C#N)C(=O)NC(c3ccc(OCCCC(F)(F)F)cc3)(C(F)(F)F)C2)c1` (stereo not drawn) [Example 64], the IC50 was 280 nM on Human MGAT-2 [1] and 761 nM at Human MGAT-2 [2].
With `CCCCCCCCNC(=O)C1(C)CC(c2ccc(C)cc2)=C(C(=O)Nc2ccc(OC)cc2)C(=O)N1` (stereo not drawn) [Example 174], the results for the IC50 at Human MGAT-2 [1] and on Human MGAT-2 [2] were 60 nM and 237 nM, respectively.
As to `O=C1NC(c2ccc(OCCCC(F)(F)F)cc2)(C(F)(F)F)CC(c2ccc(C(F)(F)F)cc2)=C1c1nn[nH]n1` (stereo not drawn) [Example 98], the IC50 on Human MGAT-2 [1] worked out at 69 nM; at Human MGAT-2 [2] it was 154 nM.
As to `Cc1ccc(C2=C(C(=O)Nc3ccc(F)cc3)C(=O)NC(c3ccc(Oc4ccccc4)cc3)(C(F)(F)F)C2)cc1` (stereo not drawn) [Example 165], the IC50 at Human MGAT-2 [1] was found to be 8 nM; on Human MGAT-2 [2], 60 nM.
As for `Cc1ccc(C2=C(C(=O)Nc3ccno3)C(=O)NC(c3ccc(OCCC(F)(F)F)cc3)(C(F)(F)F)C2)cc1` (stereo not drawn) [Example 130], the IC50 came to 1 nM at Human MGAT-2 [1] and 20 nM on Human MGAT-2 [2].
On to `Cc1ccc(C2=C(c3nn[nH]n3)C(=O)NC(c3ccc(OCCCC(F)(F)C(F)(F)F)cc3)(C(F)(F)F)C2)cc1` (stereo not drawn) [Example 118], for which the IC50 on Human MGAT-2 [1] was 4 nM; on Human MGAT-2 [2], 32 nM.
Regarding `Cc1ccc(C2=C(C#N)C(=O)NC(c3ccc(OCCOC(C)(C)C)cc3)(C(F)(F)F)C2)cc1` (stereo not drawn) [Example 34], the results for the IC50 at Human MGAT-2 [1] and at Human MGAT-2 [2] were 126 nM and 656 nM, respectively.
Consider `Cc1ccc(C2=C(C#N)C(=O)NC(c3ccc(O)cc3)(C(F)(F)F)C2)cc1` (stereo not drawn) [Example 4, 6-(4-Hydroxyphenyl)-2-oxo-4-p-tolyl-6-(trifluoromethyl)-1,2,5,6-tetrahydro-pyridine-3-carbonitrile], for which the IC50 on Human MGAT-2 [2] worked out at 5870 nM.
Consider `Cc1ccc(C2=C(C#N)C(=O)NC(C)(c3ccc(C)c(C)c3)C2)cc1C` (stereo not drawn) [Example 18], for which, at Human MGAT-2 [2], the concentration for half-maximal inhibition (IC50) is 5760 nM.
On to `Cc1ccc(C2=C(C3N=NN=N3)C(=O)NC(c3ccc(OCCCC(F)(F)F)cc3)(C(F)(F)F)C2)cc1` (stereo not drawn) [Example 113], for which, at Human MGAT-2 [2], the IC50 came to […].
Regarding `Cc1ccc(C2=C(C(=O)Nc3ccc(C(F)(F)F)cc3)C(=O)NC(c3ccc(OCCCC(F)(F)F)cc3)(C(F)(F)F)C2)cc1` (stereo not drawn) [Example 86], the IC50 at Human MGAT-2 [1] is 1 nM; on Human MGAT-2 [2], 201 nM.
Turning to `Cc1ccc(C2=C(C#N)C(=O)NC(c3ccc(Br)cc3)(C(F)(F)F)C2)cc1` (stereo not drawn) [Example 3, 6-(4-Bromophenyl)-2-oxo-4-p-tolyl-6-(trifluoromethyl)-1,2,5,6-tetrahydropyridine-3-carbonitrile], the IC50 at Human MGAT-2 [2] was found to be 1800 nM.
As for `CCOc1ccc(-c2ccc(C3(C(F)(F)F)CC(c4ccc(C)cc4)=C(C#N)C(=O)N3)cc2)cn1` (stereo not drawn) [Example 7, 6-(4-(6-Ethoxypyridin-3-yl)phenyl)-2-oxo-4-p-tolyl-6-(trifluoromethyl)-1,2,5,6-tetrahydropyridine-3-carbonitrile], the IC50 on Human MGAT-2 [2] is 818 nM.
Turning to `COc1ccc(C2=C(n3cnnn3)C(=O)NC(c3ccc(OCCCC(F)(F)F)cc3)(C(F)(F)F)C2)c(F)c1` (stereo not drawn) [Example 142], the IC50 was 10 nM at Human MGAT-2 [1] and 93 nM on Human MGAT-2 [2].
Take `Cc1ccc(C2=C(C(=O)NCc3ccccc3)C(=O)NC(c3ccc(OCCCC(F)(F)F)cc3)(C(F)(F)F)C2)cc1` (stereo not drawn) [Example 56]: at Human MGAT-2 [2], the half-inhibitory concentration (IC50) worked out at 6550 nM.
Consider `COc1cnc(NC(=O)C2=C(c3ccc(C)cc3)CC(c3ccc(OCCCCC(F)(F)F)cc3)(C(F)(F)F)NC2=O)cn1` (stereo not drawn) [Example 273], for which the IC50 on Human MGAT-2 [1] came to 10 nM; on Human MGAT-2 [2] it was 21 nM.
Regarding `Cc1ccc(C2=C(C#N)C(=O)NC(c3ccc(OCCC4CCCC4)cc3)(C(F)(F)F)C2)cc1` (stereo not drawn) [Example 36], the half-inhibitory concentration (IC50) on Human MGAT-2 [1] came out at 57 nM; at Human MGAT-2 [2], 396 nM.
With `Cc1ccc(C2=C(c3nnn[nH]3)C(=O)NC(C)(c3ccc(C)cc3)C2)cc1` (stereo not drawn) [Example 21], on Human MGAT-2 [2], the IC50 turned out to be 913 nM.
Consider `Cc1ccc(C2=C(NC(=O)c3ccccc3C)C(=O)N[C@@](c3ccc(OCCCC(F)(F)F)cc3)(C(F)(F)F)C2)cc1` [Example 105, (S)-2-Methyl-N-(2-oxo-4-p-tolyl-6-(4-(4,4,4-trifluorobutoxyl)phenyl)-6-(trifluoromethyl)-1,2,5,6-tetrahydropyridin-3-yl)benzamide], for which the IC50 on Human MGAT-2 [1] turned out to be 24 nM; at Human MGAT-2 [2] it was 672 nM.
Take `Cc1ccc(C2=C(C(=O)Nc3ccc(OC(F)(F)F)cc3)C(=O)NC(C)(c3ccc(OCCCC(F)(F)F)cc3)C2)cc1` (stereo not drawn) [Example 11, 6-Methyl-2-oxo-4-p-tolyl-6-(4-(4,4,4-trifluorobutoxyl)phenyl)-N-(4-(trifluoromethoxy)-phenyl)-1,2,5,6-tetrahydropyridine-3-carboxamide]: the IC50 on Human MGAT-2 [1] was 13 nM; at Human MGAT-2 [2] it was 48 nM.
`Cc1ccc(C2=C([N+](=O)[O-])C(=O)NC(c3ccc(OCCCC(F)(F)F)cc3)(C(F)(F)F)C2)cc1` (stereo not drawn) [Example 13, 3-Nitro-4-p-tolyl-6-(4-(4,4,4-trifluorobutoxyl)phenyl)-6-(trifluoromethyl)-5,6-dihydropyridin-2(1H)-one]: the concentration for half-maximal inhibition (IC50) at Human MGAT-2 [1] is 35 nM; at Human MGAT-2 [2] it was 3330 nM.
With `COc1ccc(C2(C(F)(F)F)CC(c3ccc(C)cc3)=C(c3nnn[nH]3)C(=O)N2)cc1` (stereo not drawn) [Example 38], the IC50 on Human MGAT-2 [2] was 2140 nM.
`Cc1ccc(C2=C(C#N)C(=O)NC(c3ccc(OCc4ccccc4)cc3)(C(F)(F)F)C2)cc1` (stereo not drawn) [Example 47]: at Human MGAT-2 [2], the IC50 amounted to 756 nM.
With `COc1ccc(C(=O)NC2=C(c3ccc(C)cc3)C(F)(F)C(c3ccc(OCCCC(F)(F)F)cc3)(C(F)(F)F)NC2=O)cc1` (stereo not drawn) [Example 163], the concentration for half-maximal inhibition (IC50) on Human MGAT-2 [1] is 47 nM; on Human MGAT-2 [2], 1180 nM.
On to `Cc1ccc(C2=C(C#N)C(=O)NC(c3cccc(F)c3)(C(F)(F)F)C2)cc1` (stereo not drawn) [Example 25], for which the 50% inhibitory concentration (IC50) at Human MGAT-2 [2] is 4570 nM.
On the same count and under the same terms, then `Cc1ccc(C2=C(C#N)C(=O)NC(C)(c3ccccc3)C2)cc1` (stereo not drawn) [Example 23], with 1290 nM; and `CC1(c2ccc(N3CCOCC3)cc2)CC(c2ccc(N3CCOCC3)cc2)=C(C#N)C(=O)N1` (stereo not drawn) [Example 17], with 1930 nM.
As for `CCOc1ccc(C2=C(C#N)C(=O)NC(C)(c3ccc(OCC)cc3)C2)cc1` (stereo not drawn) [Example 19], at Human MGAT-2 [2], the IC50 stood at 2900 nM.
In the case of `Cc1ccc(C2=C(C#N)C(=O)NC(c3ccc(N(C)C)cc3)(C(F)(F)F)C2)cc1` (stereo not drawn) [Example 31], on Human MGAT-2 [2], the IC50 was determined as 1510 nM.
With `Cc1ccc(C2=C(C#N)C(=O)NC(c3ccc(F)c(F)c3)(C(F)(F)F)C2)cc1` (stereo not drawn) [Example 26], the IC50 on Human MGAT-2 [2] came out at 6430 nM.
With `Cc1ccc(C2=C(C#N)C(=O)NC(c3ccc(F)cc3)(C(F)(F)F)C2)cc1` (stereo not drawn) [Example 27], the IC50 at Human MGAT-2 [2] came to 2520 nM.
Take `Cc1ccc(C2=C(C(=O)Nc3cccc(Cl)c3)C(=O)NC(c3ccc(OCCCC(F)(F)F)cc3)(C(F)(F)F)C2)cc1` (stereo not drawn) [Example 61]: the half-inhibitory concentration (IC50) at Human MGAT-2 [2] amounted to 709 nM.
On to `Cc1ccc(C2=C(C#N)C(=O)NC(c3cccc(Br)c3)(C(F)(F)F)C2)cc1` (stereo not drawn) [Example 32], for which, on Human MGAT-2 [2], the IC50 turned out to be 9960 nM.
Take `Cc1ccc(C2=CC(=O)NC(c3ccc(OCCCC(F)(F)F)cc3)(C(F)(F)F)C2)cc1` (stereo not drawn) [Example 70]: at Human MGAT-2 [2], the IC50 turned out to be 3400 nM.
